Measured values from patent US20240365736A1, “COMPOSITIONS AND METHODS FOR TARGETED DEGRADATION OF PROTEINS IN A PLANT CELL” (Oerth Bio LLC, priority 2021, published 2024).
Read-outs that look alike come from different tables or passages of the source.

Assays:
[1] = Uptake in plant cells: LCMS quantification in treated Abutilon leaves and leaf washings; format: in vivo; settings: for concentration at 24 h: Abutilon (plant), topical, 10 μL of 400 μM formulation per leaf
Description: Abutilon plants were sown in 3 inch pots and allowed to germinate and reach the two leaf stage. At the two leaf stage, plants were separated into groups of 8 plants and had one of their first true leaves labeled with a black marker. Formulation treatment samples were prepared using the following protocol. All treatment samples were prepared to 400 μM. Just before treatment, samples were emulsified and 10 μL of formulated compound was pipetted onto leaves marked for treatment in small droplets evenly across the leaf surface. Once all leaves were treated, they were allowed to sit undisturbed in a growth chamber for 24 hours. After 24 hours plants were removed from the chamber for sample collection.
Using clean scissors treated leaves were removed from the plants, and washed in 20 mL of LCMS grade acetonitrile. A sample of the wash solution was collected and set aside for analysis. The washed leaves were then stored in 7 mL centrifuge tubes and set aside. 8 treated leaves from a grouping were stored in the same sample tube. The untreated leaves were collected and stored in separate 7 mL tubes. The same was done with new growth.
The samples were stored in a −80° C. freezer for 24 hours before milling. Fresh stock of 80:20 LCMS grade acetonitrile and water was prepared as a milling solution. 3 to 4 ceramic milling beads were added to each tube along with 300 μL of milling solution. Tubes were sealed and put into a benchtop homogenizer. Samples were milled for two 12 second intervals at maximum speed with a 30 second rest period in between. Samples were then moved to a 4° C. centrifuge where they were centrifuged at 15000 rpm for 6 minutes. Supernatant was collected and put into 2 mL microcentrifuge tubes. […]
Samples were run with injections of 10 μL. Data was analyzed and calibration curves were built for known samples, using area under the curve for [M+H]. Unknown concentrations were calculated with the calibration curves to determine the amount of PROTAC® compound present at 24 hours in treated leaves and in the leaf washings.

[2] = tested on: Matricaria recutita, Diplotaxis tenuifolia, Agrostis spp., Poa annua, or Arabidopsis thaliana; test: Plant phenotyping assay (herbicidal phenotypes, 96-well plates); format: in vivo; settings: visual score of herbicidal phenotypes after seven days; 238, 475, 950, and 1900 g ai/ha (50-400 uM); further: key: '+++' is highly active; '++' is moderately active; '+' is weakly active; '−' is inactive
Description: Seeds of Matricaria recutita, Diplotaxis tenuifolia, Agrostis spp., Poa annua, or Arabidopsis thaliana were sown into 96-well plates containing 200 μl of growth media [0.5× Murashige and Skoog (MS) basal media (Sigma-Aldrich), 2.5 mM 2-(N-morpholino) ethanesulfonic acid (MES—Sigma-Aldrich), 0.7 g/L Phytagar (Invitrogen); pH 5.7]. Three to five seeds were distributed per well. Plates were placed under fifteen hours of light at 23° C., 65% humidity in a controlled environment growth chamber. After approximately three days, test compounds and controls were mixed with acetone and emulsified with an equal volume of 3% methyl ester of rapeseed oil (Mero), and applied to plants at concentrations of 238, 475, 950, and 1900 g ai/ha (50-400 uM).

[3] = molecular target: plant cereblon (Cereblon ligand binding domain) (Arabidopsis thaliana, UniProt F4ISN3); test: Ligand binding affinity by microscale thermophoresis (Monolith), labeled Cereblon ligand binding domain; settings: MST, RED-tris-NTA His-tag labeled Cereblon ligand binding domain, 25 nM labeled protein; binding to plant cereblon; read-out: Plant CRBN Kd
Sequence of plant cereblon (Cereblon ligand binding domain) (F4ISN3 1-547): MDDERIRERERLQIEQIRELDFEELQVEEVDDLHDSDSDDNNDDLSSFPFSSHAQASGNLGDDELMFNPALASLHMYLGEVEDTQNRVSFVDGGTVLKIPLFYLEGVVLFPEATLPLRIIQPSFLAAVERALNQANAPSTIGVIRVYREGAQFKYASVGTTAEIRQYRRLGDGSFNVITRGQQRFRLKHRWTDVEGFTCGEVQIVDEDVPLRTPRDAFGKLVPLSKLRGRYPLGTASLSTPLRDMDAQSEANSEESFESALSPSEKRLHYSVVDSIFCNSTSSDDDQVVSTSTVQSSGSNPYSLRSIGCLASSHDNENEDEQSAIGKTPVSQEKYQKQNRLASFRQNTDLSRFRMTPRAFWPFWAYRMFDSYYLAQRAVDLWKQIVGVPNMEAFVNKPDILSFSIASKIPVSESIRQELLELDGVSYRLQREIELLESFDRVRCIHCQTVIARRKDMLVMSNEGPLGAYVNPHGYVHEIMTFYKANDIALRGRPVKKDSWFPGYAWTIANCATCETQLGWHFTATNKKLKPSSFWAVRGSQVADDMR
Description: The binding affinity of the described test compounds was determined using RED-tris-NTA His-tag labeled Cereblon ligand binding domain. The labeling of the Cereblon ligand binding domain was performed according to manufacturer's protocol in assay buffer (50 nM protein: 10 nM dye, 5:1 protein to dye ratio). 200 μM compound in assay buffer (10 mM HEPES pH 7.4, 300 mM NaCl, 0.1% Pluronic-147, 10% Glycerol, 5 mM DTT) was created from 10 mM compound stock in DMSO. A 16-point serial dilution was achieved by taking 10 μL of the 200 μM first well and diluting into 10 μL of assay buffer in the second well, which was diluted in 10 μL assay buffer in the third well, and so on. DMSO content of each well matched to 2%. 10 μL of 50 nM CRBN was added to each well and mixed thoroughly by pipetting. Final assay concentration of 25 nM labeled protein and highest compound concentration of 100 μM, 1% DMSO.
Samples were incubated at room temperature in the dark for five minutes, then collected in standard Monolith capillaries. Assay was performed on the Monolith NT.155Pico using automated excitation level and medium power on M.O. Control software. Analysis of MST traces and determination of dissociation constants and was conducted in M.O. Affinity Analysis software, and the results are shown in Table 2 below.

Row | Kd [3] | Structure (SMILES) | further results
1 | 100 to 1000 nM | COCCNCC1COCCN1Cc1ccc(COc2cccc3c2CN([C@H]2CCC(=O)NC2=O)C3=O)cc1 (stereo partly drawn) [Example 12, (3S)-3-[4-[[4-[[3-[(2-Methoxyethylamino)methyl]morpholin-4-yl]methyl]-phenyl]methoxy]-1-oxo-isoindolin-2-yl]piperidine-2,6-dione] | –
2 | < 100 nM | COCCOc1cc(OCc2ccc(CN3CCOCC3)cc2)c2c(c1)C(=O)N([C@H]1CCC(=O)NC1=O)C2 [Example 21, (3S)-3-[6-(2-methoxyethoxy)-4-[[4-(morpholinomethyl)-phenyl]methoxy]-1-oxo-isoindolin-2-yl]piperidine-2,6-dione] | –
3 | < 100 nM | COCCNc1cc(COc2cccc3c2CN([C@H]2CCC(=O)NC2=O)C3=O)ccc1CN1CCOCC1 [Example 22, (3S)-3-[4-[[3-(2-methoxyethylamino)-4-(morpholinomethyl)-phenyl]methoxy]-1-oxo-isoindolin-2-yl]piperidine-2,6-dione] | –
4 | 100 to 1000 nM | COCCNc1cc(CN2CCOCC2)ccc1COc1cccc2c1CN([C@H]1CCC(=O)NC1=O)C2=O [Example 23, (S)-3-(4-((2-((2-methoxyethyl)amino)-4-(morpholinomethyl)-benzyl)oxy)-1-oxoisoindolin-2-yl)piperidine-2,6-dione] | –
5 | 100 to 1000 nM | COCCNC(=O)c1cc(COc2cccc3c2CN([C@H]2CCC(=O)NC2=O)C3=O)ccc1CN1CCOCC1 [Example 24, (S)-5-(((2-(2,6-dioxopiperidin-3-yl)-1-oxoisoindolin-4-yl)oxy)methyl)-N-(2-methoxyethyl)-2-(morpholinomethyl)benzamide] | –

Further lines, the molecule ahead of its results:

Row | Structure (SMILES) | Kd [3] | further results
6 | COc1cnc(OC)n2nc(NS(=O)(=O)c3c(OCCOCCOCCOCCOCCOCCOc4ccc5c(c4)C(=O)N(C4CCC(=O)NC4=O)C5=O)cccc3C(F)(F)F)nc12 (stereo not drawn) [Compound 4-B, N-(5,8-Dimethoxy-[1,2,4]triazolo[1,5-c]pyrimidin-2-yl)-2-((17-((2-(2,6-dioxopiperidin-3-yl)-1,3-dioxoisoindolin-5-yl)oxy)-3,6,9,12,15-pentaoxaheptadecyl)oxy)-6-(trifluoromethyl)benzenesulfonamide] | – | concentration at 24 h ([1]; leaf wash (20 mL acetonitrile), wash of treated Abutilon leaves in 20 mL acetonitrile, 24 hours after treatment, read-out: Average Concentration μM (leaf wash)): 0.342 µM; concentration at 24 h ([1]; treated leaves (milled extract supernatant), Abutilon treated leaves, 24 hours after 10 μL of 400 μM formulated compound on leaf, read-out: Average Concentration μM (treated leaves)): 0.491 µM; Uptake by leaves ([1]; Abutilon leaves, 24 hours): effectively taken up by leaves; Plant Activity [2]: +++
7 | O=C(COc1ccc(Oc2nc3ccc(F)cc3s2)cc1)NCCCOCCOCCOCCOc1ccc2c(c1)C(=O)N(C1CCC(=O)NC1=O)C2=O (stereo not drawn) [Compound 8-B, N-(3-(2-(2-(2-((2-(2,6-Dioxopiperidin-3-yl)-1,3-dioxoisoindolin-5-yl)oxy)ethoxy)ethoxy)ethoxy)propyl)-2-(4-((6-fluorobenzo[d]thiazol-2-yl)oxy)phenoxy)acetamide] | – | Plant Activity [2]: +
8 | CC(Oc1ccc(Oc2nc3ccc(F)cc3s2)cc1)C(=O)Nc1ccc(OCCCOCCOCCOCCOc2ccc3c(c2)C(=O)N(C2CCC(=O)NC2=O)C3=O)cc1F (stereo not drawn) [Compound 8-C, N-(4-(3-(2-(2-(2-((2-(2,6-Dioxopiperidin-3-yl)-1,3-dioxoisoindolin-5-yl)oxy)ethoxy)ethoxy)-ethoxy)propoxy)-2-fluorophenyl)-2-(4-((6-fluorobenzo[d]thiazol-2-yl)oxy)phenoxy)propanamide] | – | Plant Activity [2]: +
9 | COCCOCC1COCCN1Cc1ccc(COc2cccc3c2CN([C@H]2CCC(=O)NC2=O)C3=O)cc1 (stereo partly drawn) [Example 11, (3S)-3-(4-((4-((3-((2-methoxyethoxy)methyl)morpholino)methyl)benzyl)-oxy)-1-oxoisoindolin-2-yl)piperidine-2,6-dione] | < 100 nM | –
10 | COCCNC(=O)C1CCCN(Cc2ccc(COc3cccc4c3CN(C3CCC(=O)NC3=O)C4=O)cc2)C1 [Example 14, 1-(4-(((2-((S)-2,6-dioxopiperidin-3-yl)-1-oxoisoindolin-4-yl)oxy)methyl)benzyl)-N-(2-methoxyethyl)piperidine-3-carboxamide] | 100 to 1000 nM | –
11 | COCCNC(=O)C1CCN(Cc2ccc(COc3cccc4c3CN([C@H]3CCC(=O)NC3=O)C4=O)cc2)CC1 [Example 16, (S)-1-(4-(((2-(2,6-dioxopiperidin-3-yl)-1-oxoisoindolin-4-yl)oxy)methyl)benzyl)-N-(2-methoxyethyl)piperidine-4-carboxamide] | 100 to 1000 nM | –
12 | COCCNC(=O)C1CCN(Cc2ccc(COc3cccc4c3CN(C3CCC(=O)NC3=O)C4=O)cc2)C1 [Example 18, 1-(4-(((2-((S)-2,6-dioxopiperidin-3-yl)-1-oxoisoindolin-4-yl)oxy)methyl)benzyl)-N-(2-methoxyethyl)pyrrolidine-3-carboxamide] | 100 to 1000 nM | –
13 | COCCOCC1CCN(Cc2ccc(COc3cccc4c3CN([C@H]3CCC(=O)NC3=O)C4=O)cc2)CC1 [Example 20, (S)-3-(4-((4-((4-((2-methoxyethoxy)methyl)piperidin-1-yl)methyl)-benzyl)oxy)-1-oxoisoindolin-2-yl)piperidine-2,6-dione] | 100 to 1000 nM | –
14 | O=C1CCC(N2C(=O)c3ccccc3C2=O)C(=O)N1 (stereo not drawn) [Ref 1, Thalidomide, reference compound] | > 1000 nM | –
15 | Nc1cccc2c1C(=O)N(C1CCC(=O)NC1=O)C2=O (stereo not drawn) [Ref 2, Pomalidomide, reference compound] | > 1000 nM | –
